PMC8967248, “Impact of Porphyrin Binding to GENOMES UNCOUPLED 4 on Tetrapyrrole Biosynthesis in planta” (Frontiers in Plant Science, 2022)
Positions count from the first letter of the chain named.

Columns and labels:
GUN4 (AtGUN4) [1] = target: T1, GUN4 (AtGUN4) (Arabidopsis thaliana, UniProt Q9LX31, F191A); assay: tryptophan fluorescence quenching; type: binding; settings: read-out: apparent Kd
T1 construct: 6xHis-tagged, pQE80_AtGUN4(WT), expressed in and purified from E. coli
T1 sequence (Q9LX31 70-265 F191A): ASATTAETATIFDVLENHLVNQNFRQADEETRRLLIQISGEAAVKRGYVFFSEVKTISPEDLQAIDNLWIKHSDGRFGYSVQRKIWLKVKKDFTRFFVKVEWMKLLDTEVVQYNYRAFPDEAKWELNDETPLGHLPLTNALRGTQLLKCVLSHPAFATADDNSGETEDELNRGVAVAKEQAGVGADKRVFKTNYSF

GUN4 (AtGUN4) [2] = target: T2, GUN4 (AtGUN4) (Arabidopsis thaliana, UniProt Q9LX31); assay: tryptophan fluorescence quenching; type: binding; settings: read-out: apparent Kd
T2 construct: 6xHis-tagged, pQE80_AtGUN4(WT), expressed in and purified from E. coli
T2 sequence (Q9LX31 70-265): T1 sequence (Q9LX31 70-265 F191A) with A122F

Kd (GUN4 (AtGUN4) [1]): 2100 ± 280 nM
Kd (GUN4 (AtGUN4) [2]): 1050 ± 120 nM
Structure (SMILES): C=CC1=C(C)c2cc3[nH]c(cc4nc(cc5[nH]c(cc1n2)c(C)c5CCC(=O)O)C(CCC(=O)O)=C4C)c(C)c3C=C [PIX]
